Data reported in ChEMBL document CHEMBL4507259 (2021).

Tests used:
[1] = target: Casein kinase II subunit alpha' (Homo sapiens) (UniProt P19784); details: Compound concentration 1000.0 nM
[2] = target: Serine/threonine-protein kinase RIO3 (Homo sapiens) (UniProt O14730); details: Compound concentration 1000.0 nM
[3] = target: SRSF protein kinase 1 (Homo sapiens) (UniProt Q96SB4); details: Compound concentration 1000.0 nM
[4] = target: T1, Alpha-2B adrenergic receptor (Homo sapiens) (UniProt P18089); details: Compound concentration 10.0 uM
T1 sequence (whole entry): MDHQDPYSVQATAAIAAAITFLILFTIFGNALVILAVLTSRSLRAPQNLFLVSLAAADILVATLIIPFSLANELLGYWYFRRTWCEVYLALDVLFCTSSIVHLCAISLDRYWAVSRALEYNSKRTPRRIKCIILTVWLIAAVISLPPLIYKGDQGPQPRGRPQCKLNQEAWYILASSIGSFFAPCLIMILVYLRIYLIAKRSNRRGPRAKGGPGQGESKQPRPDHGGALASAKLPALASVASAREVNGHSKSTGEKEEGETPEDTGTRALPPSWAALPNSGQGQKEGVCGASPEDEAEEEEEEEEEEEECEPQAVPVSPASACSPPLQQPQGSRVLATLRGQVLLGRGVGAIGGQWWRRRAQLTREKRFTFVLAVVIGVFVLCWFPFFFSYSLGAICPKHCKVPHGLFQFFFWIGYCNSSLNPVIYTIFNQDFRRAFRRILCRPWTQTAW

[5] = target: Serine/threonine-protein kinase 3 (Homo sapiens) (UniProt Q13188); details: Compound concentration 1000.0 nM
[6] = system: Mast/stem cell growth factor receptor Kit (Homo sapiens), P10721 [V559D]; details: Compound concentration 1000.0 nM
[7] = target: cGMP-dependent protein kinase 1 (Homo sapiens) (UniProt Q13976); details: Compound concentration 1000.0 nM
[8] = target: Alpha-1D adrenergic receptor (Homo sapiens) (UniProt P25100); details: Compound concentration 10.0 uM
[9] = system: Phosphatidylinositol 4,5-bisphosphate 3-kinase catalytic subunit alpha isoform (Homo sapiens), P42336 [Q546K]; details: Compound concentration 1000.0 nM
[10] = target: Mitogen-activated protein kinase 15 (Homo sapiens) (UniProt Q8TD08); details: Compound concentration 1000.0 nM
[11] = target: Serine/threonine-protein kinase DCLK1 (Homo sapiens) (UniProt O15075); details: Compound concentration 1000.0 nM
[12] = target: Mitogen-activated protein kinase kinase kinase kinase 1 (Homo sapiens) (UniProt Q92918); details: Compound concentration 1000.0 nM
[13] = system: Tyrosine-protein kinase ABL1 (Homo sapiens), P00519 [H396P]; details: Compound concentration 1000.0 nM
[14] = target: AP2-associated protein kinase 1 (Homo sapiens) (UniProt Q2M2I8); details: Compound concentration 1000.0 nM
[15] = target: Interferon-induced, double-stranded RNA-activated protein kinase (Homo sapiens) (UniProt P19525); details: Compound concentration 1000.0 nM
[16] = target: Sigma non-opioid intracellular receptor 1 (Homo sapiens) (UniProt Q99720); details: Compound concentration 10.0 uM
[17] = target: G protein-coupled receptor kinase 4 (Homo sapiens) (UniProt P32298); details: Compound concentration 1000.0 nM
[18] = target: Aurora kinase A (Homo sapiens) (UniProt O14965); details: Compound concentration 1000.0 nM
[19] = target: Fibroblast growth factor receptor 1 (Homo sapiens) (UniProt P11362); details: Compound concentration 1000.0 nM
[20] = target: Hormonally up-regulated neu tumor-associated kinase (Homo sapiens) (UniProt P57058); details: Compound concentration 1000.0 nM
[21] = target: Serine/threonine-protein kinase Nek6 (Homo sapiens) (UniProt Q9HC98); details: Compound concentration 1000.0 nM
[22] = target: ALK tyrosine kinase receptor (Homo sapiens) (UniProt Q9UM73); details: Compound concentration 1000.0 nM
[23] = target: Interleukin-1 receptor-associated kinase 1 (Homo sapiens) (UniProt P51617); details: Compound concentration 1000.0 nM
[24] = target: Wee1-like protein kinase 2 (Homo sapiens) (UniProt P0C1S8); details: Compound concentration 1000.0 nM
[25] = target: Receptor-type tyrosine-protein kinase FLT3 (Homo sapiens) (UniProt P36888); details: Compound concentration 1000.0 nM
[26] = target: Beta-1 adrenergic receptor (Homo sapiens) (UniProt P08588); details: Compound concentration 10.0 uM
[27] = target: Dual specificity protein kinase CLK2 (Homo sapiens) (UniProt P49760); details: Compound concentration 1000.0 nM
[28] = target: Phosphatidylinositol 5-phosphate 4-kinase type-2 gamma (Homo sapiens) (UniProt Q8TBX8); details: Compound concentration 1000.0 nM
[29] = target: Serine/threonine-protein kinase 32C (Homo sapiens) (UniProt Q86UX6); details: Compound concentration 1000.0 nM
[30] = target: T2, Muscarinic acetylcholine receptor M1 (Homo sapiens) (UniProt P11229); test: M1 (h) CEREP ligand profiling; details: filed as antagonist, Compound concentration 10.0 uM
T2 sequence (whole entry): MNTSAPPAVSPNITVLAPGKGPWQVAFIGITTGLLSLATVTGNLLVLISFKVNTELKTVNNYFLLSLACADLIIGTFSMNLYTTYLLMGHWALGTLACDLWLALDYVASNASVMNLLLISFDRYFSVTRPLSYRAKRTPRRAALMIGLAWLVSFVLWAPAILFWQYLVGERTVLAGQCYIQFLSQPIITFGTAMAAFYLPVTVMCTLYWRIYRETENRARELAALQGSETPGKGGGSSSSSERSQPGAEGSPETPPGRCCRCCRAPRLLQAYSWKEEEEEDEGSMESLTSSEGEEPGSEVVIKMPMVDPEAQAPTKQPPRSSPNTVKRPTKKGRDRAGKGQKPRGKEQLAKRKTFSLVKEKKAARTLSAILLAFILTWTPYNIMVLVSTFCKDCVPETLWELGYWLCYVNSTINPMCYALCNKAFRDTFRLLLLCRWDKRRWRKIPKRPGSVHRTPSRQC

[31] = target: Sodium-dependent serotonin transporter (Homo sapiens, UniProt P31645); details: Compound concentration 10.0 uM
[32] = system: DU-145; test: DU-145 Proliferation; type: functional, cell-based; details: Homo sapiens
[33] = system: Tyrosine-protein kinase ABL1 (Homo sapiens), P00519 [T315I]; details: Compound concentration 1000.0 nM

Sequence of Mitogen-activated protein kinase 15 (Homo sapiens) (Q8TD08 whole entry): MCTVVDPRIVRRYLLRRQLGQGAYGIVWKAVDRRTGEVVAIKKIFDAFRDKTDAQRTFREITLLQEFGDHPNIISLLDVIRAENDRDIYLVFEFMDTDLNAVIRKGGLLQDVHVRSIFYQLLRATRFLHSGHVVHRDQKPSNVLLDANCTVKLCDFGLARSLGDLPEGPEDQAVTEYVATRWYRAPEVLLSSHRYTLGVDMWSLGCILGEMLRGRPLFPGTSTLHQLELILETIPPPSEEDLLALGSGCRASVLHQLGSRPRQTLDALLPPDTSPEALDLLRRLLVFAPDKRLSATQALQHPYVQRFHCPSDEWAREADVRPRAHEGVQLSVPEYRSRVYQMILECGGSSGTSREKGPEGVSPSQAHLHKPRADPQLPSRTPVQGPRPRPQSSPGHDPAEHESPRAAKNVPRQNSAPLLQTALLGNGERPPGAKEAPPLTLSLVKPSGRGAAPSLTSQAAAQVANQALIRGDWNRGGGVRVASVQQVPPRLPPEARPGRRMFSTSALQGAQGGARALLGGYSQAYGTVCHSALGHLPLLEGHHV
Sequence of Casein kinase II subunit alpha' (Homo sapiens) (P19784 whole entry, looked up): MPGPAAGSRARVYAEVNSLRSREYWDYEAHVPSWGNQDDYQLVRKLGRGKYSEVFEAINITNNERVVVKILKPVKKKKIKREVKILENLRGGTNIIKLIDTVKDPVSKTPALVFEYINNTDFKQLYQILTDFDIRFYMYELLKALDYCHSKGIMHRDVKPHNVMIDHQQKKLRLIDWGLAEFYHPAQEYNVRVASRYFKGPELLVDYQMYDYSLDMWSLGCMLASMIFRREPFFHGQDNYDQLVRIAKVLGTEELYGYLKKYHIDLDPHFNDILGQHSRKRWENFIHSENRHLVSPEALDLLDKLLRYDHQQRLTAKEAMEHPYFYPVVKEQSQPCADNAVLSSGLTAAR
Sequence of Phosphatidylinositol 5-phosphate 4-kinase type-2 gamma (Homo sapiens) (Q8TBX8 whole entry): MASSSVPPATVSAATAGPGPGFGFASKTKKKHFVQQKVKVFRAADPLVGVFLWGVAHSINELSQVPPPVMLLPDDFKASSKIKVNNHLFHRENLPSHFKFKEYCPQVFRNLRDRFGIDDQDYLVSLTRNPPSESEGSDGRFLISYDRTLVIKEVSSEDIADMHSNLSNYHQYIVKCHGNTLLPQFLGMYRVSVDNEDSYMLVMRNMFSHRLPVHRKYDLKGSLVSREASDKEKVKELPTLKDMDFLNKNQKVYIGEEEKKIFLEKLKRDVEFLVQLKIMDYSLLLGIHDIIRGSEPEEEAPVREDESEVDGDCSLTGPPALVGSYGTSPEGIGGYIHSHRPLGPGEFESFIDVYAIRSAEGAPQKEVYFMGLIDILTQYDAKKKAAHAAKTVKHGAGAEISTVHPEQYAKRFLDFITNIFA
Sequence of Phosphatidylinositol 4,5-bisphosphate 3-kinase catalytic subunit alpha isoform (Homo sapiens), P42336 [Q546K] (P42336 whole entry Q546K, canonical isoform): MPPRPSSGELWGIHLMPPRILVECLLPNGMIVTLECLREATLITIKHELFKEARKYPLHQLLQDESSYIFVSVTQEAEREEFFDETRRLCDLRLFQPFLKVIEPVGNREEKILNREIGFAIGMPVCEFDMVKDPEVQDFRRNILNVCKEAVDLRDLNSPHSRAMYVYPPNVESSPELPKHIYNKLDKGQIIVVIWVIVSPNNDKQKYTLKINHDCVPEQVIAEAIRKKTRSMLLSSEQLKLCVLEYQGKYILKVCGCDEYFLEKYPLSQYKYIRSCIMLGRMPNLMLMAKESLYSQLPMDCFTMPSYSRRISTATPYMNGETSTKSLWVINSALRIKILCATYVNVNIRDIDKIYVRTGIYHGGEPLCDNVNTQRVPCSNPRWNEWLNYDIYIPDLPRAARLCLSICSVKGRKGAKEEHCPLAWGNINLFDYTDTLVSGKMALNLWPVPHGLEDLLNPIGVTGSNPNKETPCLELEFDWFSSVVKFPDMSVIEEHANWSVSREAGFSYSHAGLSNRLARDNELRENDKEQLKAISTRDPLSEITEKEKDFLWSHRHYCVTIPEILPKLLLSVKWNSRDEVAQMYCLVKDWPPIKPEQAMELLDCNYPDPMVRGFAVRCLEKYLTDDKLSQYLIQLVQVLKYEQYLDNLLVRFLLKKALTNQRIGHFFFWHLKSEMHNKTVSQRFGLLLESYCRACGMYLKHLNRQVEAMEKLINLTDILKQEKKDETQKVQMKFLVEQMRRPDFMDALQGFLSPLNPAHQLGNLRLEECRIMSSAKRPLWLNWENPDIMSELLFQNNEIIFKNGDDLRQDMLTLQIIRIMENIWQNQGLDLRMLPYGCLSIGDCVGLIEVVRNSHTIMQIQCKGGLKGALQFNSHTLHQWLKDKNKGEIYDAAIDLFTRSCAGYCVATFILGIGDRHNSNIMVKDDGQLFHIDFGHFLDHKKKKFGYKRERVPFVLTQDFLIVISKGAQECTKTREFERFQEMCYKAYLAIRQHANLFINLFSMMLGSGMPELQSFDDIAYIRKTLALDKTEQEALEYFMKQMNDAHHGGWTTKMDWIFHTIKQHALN
Sequence of Alpha-1D adrenergic receptor (Homo sapiens) (P25100 whole entry, canonical isoform): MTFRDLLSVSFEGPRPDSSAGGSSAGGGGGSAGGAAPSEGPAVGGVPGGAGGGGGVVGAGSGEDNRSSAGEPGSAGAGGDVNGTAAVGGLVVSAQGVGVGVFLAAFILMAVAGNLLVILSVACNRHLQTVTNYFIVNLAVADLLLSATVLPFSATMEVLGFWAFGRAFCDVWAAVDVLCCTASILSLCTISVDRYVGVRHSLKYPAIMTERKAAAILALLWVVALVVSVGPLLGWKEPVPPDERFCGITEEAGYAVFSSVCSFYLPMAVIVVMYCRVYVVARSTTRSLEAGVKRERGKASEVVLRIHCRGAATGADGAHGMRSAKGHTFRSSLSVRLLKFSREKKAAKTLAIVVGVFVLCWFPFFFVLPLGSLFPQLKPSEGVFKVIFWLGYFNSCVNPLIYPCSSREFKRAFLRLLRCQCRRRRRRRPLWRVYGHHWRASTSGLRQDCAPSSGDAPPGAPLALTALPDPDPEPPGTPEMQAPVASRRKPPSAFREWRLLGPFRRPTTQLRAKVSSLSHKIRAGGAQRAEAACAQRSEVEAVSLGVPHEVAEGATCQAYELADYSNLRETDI
Sequence of Wee1-like protein kinase 2 (Homo sapiens) (P0C1S8 whole entry, looked up): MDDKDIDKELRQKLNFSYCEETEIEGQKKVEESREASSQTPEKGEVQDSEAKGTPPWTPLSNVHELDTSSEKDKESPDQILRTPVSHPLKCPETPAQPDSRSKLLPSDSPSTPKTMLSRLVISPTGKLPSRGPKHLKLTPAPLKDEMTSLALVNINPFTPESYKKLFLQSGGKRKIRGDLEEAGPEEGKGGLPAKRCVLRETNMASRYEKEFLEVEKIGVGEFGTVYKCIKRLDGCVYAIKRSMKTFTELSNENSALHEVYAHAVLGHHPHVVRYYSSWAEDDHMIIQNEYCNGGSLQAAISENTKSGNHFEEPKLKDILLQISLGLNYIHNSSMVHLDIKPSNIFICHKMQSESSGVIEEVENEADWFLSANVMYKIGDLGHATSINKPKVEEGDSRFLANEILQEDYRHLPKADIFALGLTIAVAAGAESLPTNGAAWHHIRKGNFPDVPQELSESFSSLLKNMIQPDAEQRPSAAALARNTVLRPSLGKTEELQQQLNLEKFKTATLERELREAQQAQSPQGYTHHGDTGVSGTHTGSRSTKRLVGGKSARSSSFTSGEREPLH
Sequence of Interleukin-1 receptor-associated kinase 1 (Homo sapiens) (P51617 whole entry, looked up): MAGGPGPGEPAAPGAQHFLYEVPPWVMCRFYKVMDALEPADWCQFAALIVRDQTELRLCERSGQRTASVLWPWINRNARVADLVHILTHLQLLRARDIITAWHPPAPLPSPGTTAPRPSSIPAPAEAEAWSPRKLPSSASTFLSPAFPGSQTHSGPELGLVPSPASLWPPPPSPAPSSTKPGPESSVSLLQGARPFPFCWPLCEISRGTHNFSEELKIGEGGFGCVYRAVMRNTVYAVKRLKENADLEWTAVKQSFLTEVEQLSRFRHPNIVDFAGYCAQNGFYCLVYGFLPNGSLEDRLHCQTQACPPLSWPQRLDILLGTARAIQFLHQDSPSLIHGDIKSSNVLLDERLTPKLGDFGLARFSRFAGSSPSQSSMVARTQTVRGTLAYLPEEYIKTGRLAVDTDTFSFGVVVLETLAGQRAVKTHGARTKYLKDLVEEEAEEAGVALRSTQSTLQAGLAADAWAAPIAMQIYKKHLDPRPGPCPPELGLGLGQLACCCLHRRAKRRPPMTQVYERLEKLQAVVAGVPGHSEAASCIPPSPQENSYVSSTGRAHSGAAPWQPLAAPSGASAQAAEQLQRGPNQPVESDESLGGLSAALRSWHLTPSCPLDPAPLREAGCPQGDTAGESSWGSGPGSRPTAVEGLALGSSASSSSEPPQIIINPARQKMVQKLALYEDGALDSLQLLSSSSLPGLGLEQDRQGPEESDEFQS
Sequence of Serine/threonine-protein kinase DCLK1 (Homo sapiens) (O15075 whole entry): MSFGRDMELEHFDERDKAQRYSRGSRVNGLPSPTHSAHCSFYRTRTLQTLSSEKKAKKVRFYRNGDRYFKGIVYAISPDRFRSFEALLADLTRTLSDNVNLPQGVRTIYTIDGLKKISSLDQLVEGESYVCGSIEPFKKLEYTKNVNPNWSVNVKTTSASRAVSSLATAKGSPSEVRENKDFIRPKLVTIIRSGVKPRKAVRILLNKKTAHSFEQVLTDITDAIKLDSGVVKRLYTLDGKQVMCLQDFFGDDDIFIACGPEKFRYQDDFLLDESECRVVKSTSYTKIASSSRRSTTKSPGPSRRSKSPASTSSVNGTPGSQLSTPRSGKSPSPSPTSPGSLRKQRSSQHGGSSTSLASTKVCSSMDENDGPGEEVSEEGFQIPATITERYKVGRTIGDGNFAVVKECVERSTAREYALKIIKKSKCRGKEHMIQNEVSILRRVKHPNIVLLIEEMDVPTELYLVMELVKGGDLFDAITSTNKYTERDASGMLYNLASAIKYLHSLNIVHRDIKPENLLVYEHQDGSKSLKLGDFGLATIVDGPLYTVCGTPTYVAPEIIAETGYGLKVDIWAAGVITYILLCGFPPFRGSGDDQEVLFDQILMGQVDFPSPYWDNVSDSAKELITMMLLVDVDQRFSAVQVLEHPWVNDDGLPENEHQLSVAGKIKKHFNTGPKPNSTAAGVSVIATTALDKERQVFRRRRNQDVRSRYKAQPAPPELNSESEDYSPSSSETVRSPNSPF

Row | Compound | residual activity [1] [%] | residual activity [2] [%] | residual activity [3] [%] | inhibition [4] [%] | residual activity [5] [%] | residual activity [6] [%] | residual activity [7] [%] | inhibition [8] [%] | residual activity [9] [%] | residual activity [10] [%] | residual activity [11] [%] | residual activity [12] [%] | residual activity [13] [%] | residual activity [14] [%] | residual activity [15] [%] | inhibition [16] [%] | residual activity [17] [%] | residual activity [18] [%] | residual activity [19] [%] | residual activity [20] [%] | other results
1 | CNC(=O)Nc1ccc2c(c1)[C@@]1(CC2)OC(=O)N(CC(=O)N(Cc2ccc(F)cc2)[C@@H](C)C(F)(F)F)C1=O [A-486] | 90 | 100 | 100 | 10.2 | 97 | 100 | 100 | 9.73 | 81 | 93 | 76 | 90 | 53 | 100 | 100 | 17.7 | 100 | 79 | 84 | 100 | residual activity [21]: 100%; residual activity [22]: 77%; residual activity [23]: 88%; residual activity [24]: 100%; residual activity [25]: 96%; inhibition [26]: -4.4%; residual activity [27]: 100%; residual activity [28]: 100%; residual activity [29]: 100%; inhibition [30]: -8%; inhibition [31]: 31%; IC50 [32]: > 10 µM (not active); residual activity [33]: 86%
2 | CNC(=O)Nc1ccc2c(c1)CC[C@@]21OC(=O)N(CC(=O)N(Cc2ccc(F)cc2)[C@@H](C)C(F)(F)F)C1=O [A-485] | 100 | 89 | 95 | 26.5 | 100 | 100 | 100 | -1.58 | 79 | 74 | 96 | 99 | 49 | 100 | 92 | 34.5 | 98 | 80 | 82 | 100 | residual activity [21]: 86%; residual activity [22]: 68%; residual activity [23]: 71%; residual activity [24]: 75%; residual activity [25]: 100%; inhibition [26]: -5.22%; residual activity [27]: 97%; residual activity [28]: 93%; residual activity [29]: 88%; inhibition [30]: -2%; inhibition [31]: 95.6%; IC50 [32]: > 10 µM (not active); residual activity [33]: 78%
